Measurements reported in US6790603B2, “Compositions for the storage of platelets” (Bioenergy, Inc., priority 1999, dated 2004).

How the values were obtained:
[1] = 30 grams of ribose each day; cited from earlier work
[2] = tested on: whole blood; settings: 15 mM ribose; cited from earlier work
[3] = tested on: platelets; assay: Platelet aggregation on thrombin challenge (optical density / aggregometer); type: cell-based
Protocol: As a second measure of the effect of ribose on platelets, platelet aggregation was estimated. Platelet aggregation is a crucial function of platelet activity; platelets that cannot aggregate are essentially nonfunctional. Platelets were stored as above.
The optical density of the suspension was measured before and after thrombin challenge.
Platelet aggregation was measured with a platelet aggregometer (Chronolog, Inc., Irvine, Calif.). Platelet-rich, turbid suspensions were stirred in a cuvette and the transmittance of light through the sample relative to a platelet poor blank is recorded. When a aggregating agent is added, activated platelets with exposed fibrinogen receptors (GPIIbIIIa) are brought in close contact with each other in a medium containing calcium and fibrinogen and form increasingly large platelet aggregates, accompanied by a decrease in turbidity. The change in optical density was then translated by the instrument to percent aggregation. Simple stated, as platelets clump, more light passes through the cuvette.

[4] = tested on: bacteria; assay: Bacterial contamination of platelet storage solution (colony counts in Petri dishes); settings: D-Ribose added to storage cocktail
Protocol: Bacterial contamination was measured by colony counts in standard Petri dishes that had been inculated with the test solution. It is assumed that the millimolar glucose concentration in most platelet storage solutions contributes to the growth of bacteria. As noted above, Murphy (Table II) discloses a glucose-free solution for the storage of platelets. Elimination of reduction of glucose levels from millimolar to micromolar concentrations has a profound effect in reducing bacterial contamination, however, platelet function at five days, as measured by ATP secretion and P-selectin expression, was poor.

[5] = tested on: platelets; assay: P-selectin expression in stored platelets, basal and after 10 nM thrombin challenge (flow cytometry); type: cell-based
Protocol: A basal measurement of spontaneous activation is obtained and the cells are then challenged with an agonist. The difference between cells challenged to activate minus the basal measurement is a measure of cell function. In the preferred embodiment, the agonist is 10 nM thrombin. P-selectin expression in response to a challenge of 10 nM thrombin is a highly accurate and quantitative method to assess platelet function using flow cytometry techniques. A monoclonal antibody to the platelet GPIIbIIIa receptor (Becton-Dickinson) is conjugated with green fluorescence, marking all platelets with a green detection. […] About 10,000 to 25,000 platelets are counted and measured for P-selectin expression and the % positive cells are defined as activated platelets that express P-selectin. Platelets that are activated are not capable of being activated a second time; that is, they are essentially nonfunctional. It was proposed years ago by Dawson (Transfusion 21:215-218. (1981)) that ribose at the concentration of 15 mM is beneficial to stored whole blood. It was assumed that ribose functioned by raising the energy levels of the cells, as discussed at length in U.S. Pat. No. 6,159,942. […] Platelet function was assessed by ATP secretion, platelet aggregation, P-selectin expression, platelet count and pH. Platelet function was measured every 24 hours. […]

[6] = tested on: platelets; assay: Preservation of function in stored platelets (ATP secretion, aggregation, P-selectin expression, pH, platelet count); type: cell-based
Protocol: It is known that other pentoses may have similar effects as D-Ribose, either through intracellular conversion to ribose or a direct effect. Ribulose-5-phosphate, xylulose-5-phosphate and xylitol were tested for preservation of activity in stored platelets according to the methods of examples 1 to 6.
Ribulose-5-phosphate was purchased from Sigma Chemical (St. Louis) and added to the standard CPD platelet storage solution. The following parameters of function were tested: ATP secretion in response to 10 nM thrombin; platelet aggregation; P-selectin expression in response to thrombin challenge; pH change; and platelet count. Platelet concentrate bags were obtained from a transfusion center within hours of collection. Aliquots were sampled from the platelet bags and concentrations of ribulose-5-phosphate were added for a final concentration from 1.5 mM down to 150 pM. Controls without ribulose-5-phosphate were analyzed for comparison. Samples were analyzed every 24 hours for platelet function.

[7] = tested on: platelets; assay: ATP secretion in response to 10 nM thrombin (luciferin/luciferase assay); type: cell-based
Excerpt: The platelet dense granules shown in FIG. 1 contain ATP which is released in response to platelet agonists such as thrombin, collagen or adenosine diphosphate (ADP). The release reaction of ATP from platelets serves as another method to monitor platelet function. There are many methods to analyze ATP. A convenient method is the well known luciferin/luciferase reaction (Sigma Chemical, St. Louis). This assay is derived from the light producing system of the firefly. The substrate luciferin, in the presence of ATP, is cleaved by the enzyme luciferase, accompanied by the emission of light. The emitted light is measured by a photomultiplier tube
Platelet suspensions containing about 350 units in 4 μl were mixed with 10 μl luciferin/luciferase reagent. An agonist is injected. As the platelet dense granules release ATP, the bioluminescent reaction occurs, which is measured by the photomultiplier tube. […] The rate of reaction is recorded and as platelet function decays, the rate decays. Total ATP was measured by lysing the cells with Triton and determining ATP content. The results as presented in Table III are expressed as intact rate of ATP secretion.

O=C[C@H](O)[C@H](O)[C@H](O)CO [D-Ribose]
Tolerability of ingestion [1]: no ill effects | Effect on stored whole blood [2]: beneficial | Platelet samples with aggressive aggregation response ([3]; day 3, 10 nM thrombin): all five | Platelet samples responding (aggregation) ([3]; day five, thrombin): four out of five | Platelet samples able to aggregate ([3]; day seven, thrombin): three out of five | Aggregation on thrombin challenge ([3]; platelets stored in 150 pM D-Ribose): no aggregation | Aggregation on thrombin challenge ([3]; platelets stored in 150 nM D-Ribose): strong aggregation | Aggregation on thrombin challenge ([3]; platelets stored in 15 μM D-Ribose): very weak effect | Aggregation on thrombin challenge ([3]; platelets stored in 1.5 mM D-Ribose): no aggregation | Bacterial contamination [4]: lower incidence of bacterial contamination | Preservation of function (P-selectin expression test) ([5]; 150 pM D-Ribose, five days storage): ineffective | % positive (activated) cells ([5]; 153 nM D-Ribose, three days storage, basal): 5% | Platelet function compared with storage in presence of glucose ([6]; 150 nM D-Ribose, glucose eliminated or reduced to micromolar): similar | Preservative effect on ATP secretion ([7]; 1.5 nM D-Ribose): no preservative effect | Rise in total ATP content of treated cells ([7]; 150 nM D-Ribose): more than 10% | Toxicity to platelets ([7]; 15 mM D-Ribose): toxic to platelets | Mean ATP secretion activity, % of baseline ([7]; optimal D-Ribose (150 nM), day 7): > 80%

O=C(CO)[C@H](O)[C@H](O)COP(=O)(O)O [ribulose-5-phosphate, Ribulose-5-phosphate]
Platelet function parameters versus controls ([6]; 1.5 mM down to 150 pM, analyzed every 24 hours): No difference from controls

OC[C@@H](O)[C@H](O)[C@@H](O)CO [xylitol]
Preservation of platelet function ([6]; trends inconsistent): some benefit

O=C(CO)[C@@H](O)[C@H](O)COP(=O)(O)O [xylulose-5-phosphate, Xylulose-5-phosphate]
Platelet aggregation ([3]; five days storage): weak
